The source of these data is patent publication US5646316A, “Bile acid inhibitors of metalloproteinase enzymes” (OsteoArthritis Sciences, Inc., priority 1995, dated 1997).

Read-outs that look alike come from different tables or passages of the source.

By inhibition is commonly meant the change of the read-out against control, counted positive when it falls. As usually defined, the IC50 is the concentration at which inhibition is half-maximal. A high value points to weaker potency.

One assay concerns chondrocytes. Briefly: Chondrocyte Cell Culture Matrix Breakdown Assay (35S release, rhIL-1α stimulated). The class given is cell-based, calf. The following applies: Bos taurus, Chondrocyte, read-out: percent inhibition, Cell Culture. How it is done: A cell culture assay was used to measure the ability of compounds to slow the degradation of the extracellular matrix by a metalloproteinase. This assay measured the amount ^35 S released from chondrocytes grown in a media with ^35 S labeled sodium sulfate. The cell culture assay was carried out as follows:
Two or three 1 to 3 week old calf joints were obtained from an abattoir. The proximal end of the shank was at about 4-5" long to facilitate immobilization in the holder. The joint was kept cool and transported on ice. The exterior of the intact joints was washed well with a suitable anti-microbial soap, rinsed clean with warm water, rinsed in betadine and then finally rinsed with 70% ethanol. Up to this point all steps were done in a manner to ensure that the joint was kept as clean as possible. All subsequent steps were performed in a sterile field (i.e., in a Edgeguard laminar flow tissue culture hood). The joint was immobilized and the synovial fluid was aspirated with a needle and syringe. The joint was then cut open to expose the articular cartilage using a #21 scalpel. Using locking hemostats, forceps and a #15 scalpel, the cartilage was excised in full thickness pieces. Care was taken not to cut too deep because bleeding would have occurred if the subchondral bone, was penetrated. The cartilage pieces were placed into a 50 mL centrifuge tube containing 25 mL of Delbecco's phosphate buffered saline (D-PBS) supplemented with 1% antibiotic solution (penicillin, streptomycin and fungizone; GIBCO/BRL). The slices from each joint were then placed into separate 50 mL centrifuge tubes. The D-PBS was decanted and replaced with 25 mL of fresh D-PBS supplemented with antibiotics and subsequently agitated gently.
The cartilage pieces were transferred to a fresh 50 mL centrifuge tube and rinsed once more with 25 mL of D-PBS minus antibiotics. An enzymatic digestion solution containing 1 mg/mL of hyaluronidase in serum-free 1:1 DMEM/Ham's F-12 (DMEM/F12) was prepared. This solution was filter sterilized with […] Milex--GV filter and kept on ice until ready to use. The cartilage pieces were digested with approximately 5 mL of hyaluronidase solution per joint for 2×15 minutes at 37° C. in the 50 mL centrifuge tube with gentle agitation at the 15 minute mark. This procedure removed residual hyaluronic acid from the surface of the chips. The enzymatic digestion solution was then aspirated and the cartilage pieces were rinsed with 25 mL of D-PBS.
A second enzymatic digestion solution containing 2.5 mg trypsin and 2 mg collagenase P per mL serum-free DMEM/F12 was prepared. This solution was also filter sterilized with a […] Millex--GV filter and kept on ice until ready to use. The cartilage pieces were digested with approximately 5 mL of trypsin: collagenase solution per joint for 2×15 minutes at 37° C. in the 50 mL centrifuge tube with gentle agitation at the 15 minute mark. This procedure removed the synovial fibroblasts and any adherent connective tissue from the surface of the chips. The enzymatic digestion solution was then carefully removed and saved and the cartilage pieces were rinsed with 25 mL of D-PBS.
A third enzymatic solution containing 2 mgs of collagenase P (BMB) per mL serum-free DMEM/F12 was prepared. This solution was filter sterilized with a […] Millex--GV filter and kept on ice until ready to use. The pre-digested cartilage pieces were finally digested with approximately 20 mL of enzymatic digestion solution per joint for 5-6 hours at 37° C. in a Bellco stirring digestion flask, at which point the cartilage was fully digested away.
The enzymes in the synovial fibroblast and chondrocyte digest were neutralized by addition of an equal volume of DMEM/F12 supplemented with 5% fetal bovine serum. Fibroblasts were plated in DMEM at a cellular density of 6.6×10^3 cells per cm^2. […]

Another assay has as its target stromelysin (Homo sapiens, UniProt P08254). Briefly: Assay of Stromelysin Inhibition Activity (fluorogenic substrate hydrolysis). The assay is classed as biochemical. As to conditions: for inhibition at 10 µM: read-out: percent inhibition of stromelysin. The method, then: (§1) Stromelysin was first activated by trypsin. This was done by preparing a reaction mixture in B-150 (B-150 consists of 150 mM NaCl, 20 mM Tris at pH 7.8 and 0.02% sodium azide) containing a final concentration of 4 μg/mL trypsin, 1.48 μg/mL of stromelysin, and 3.15 mM CaCl2. The reaction was incubated for 30 minutes at 37° C. and then quenched by adding soybean trypsin inhibitor to a final concentration of 43.6 μg/mL. ZnCl2 was added to the reaction mixture for a total concentration of 0.24 μM.
(§2) Following preparation of the solution of activated stromelysin, assay solutions were prepared for each inhibitor being tested. A control was also prepared. First, […] of activated stromelysin (about 45 μL from the solution of activated stromelysin) were aliquotted per assay tube. A 2.5 mM solution in 100% dimethyl sulfoxide (DMSO) was prepared for each inhibitor being tested and 1 μL from each inhibitor solution was added to one of the assay tubes. In addition, 1 μL of 100% DMSO was added to the control assay tube. All assay tubes were then pre-incubated for 5 minutes.
(§3) 5 μL of a previously prepared 50 μM solution of substrate in 15% DMSO were added to each assay tube. The substrate was a methoxycumarin developed by Knight et al. FEBS Lett. 296:263-66 (1992). The tubes were then incubated for 60 minutes, at which time the reaction was stopped with the addition of 750 μL of 0.1M NaAc pH 4.0 buffer.
(§4) Substrate hydrolysis was assessed by fluorescence using a slit width of 10:10, excitation at 328 nm and emission at 393 nm. The results of these assays are listed in Table I as percent inhibition at 10 μM of the bile acid provided compound tested or as the IC50.

The test system of a further assay is collagenase. Description: Assay of Collagenase Inhibition Activity. The class given is biochemical. The following applies: at 10 μM of compound; 45 minutes at 37° C. How it is done:
as §1, §2, §3, §4
The assay procedure for collagenase was the same as described in Example 13 for stromelysin except that the trypsin activation was performed for 45 minutes. In addition, the incubation of the assay tubes at 37° C. was only for 45 minutes, and the final enzyme concentration is 6 nm. The results of these assays are provided in Table I as percent inhibition at 10 μM of the compound tested.

Where [1] appears, read: at 50 μM, rhIL-1α 1 ng/ml, 22-24 hours.

Sequence of stromelysin (P08254 100-477): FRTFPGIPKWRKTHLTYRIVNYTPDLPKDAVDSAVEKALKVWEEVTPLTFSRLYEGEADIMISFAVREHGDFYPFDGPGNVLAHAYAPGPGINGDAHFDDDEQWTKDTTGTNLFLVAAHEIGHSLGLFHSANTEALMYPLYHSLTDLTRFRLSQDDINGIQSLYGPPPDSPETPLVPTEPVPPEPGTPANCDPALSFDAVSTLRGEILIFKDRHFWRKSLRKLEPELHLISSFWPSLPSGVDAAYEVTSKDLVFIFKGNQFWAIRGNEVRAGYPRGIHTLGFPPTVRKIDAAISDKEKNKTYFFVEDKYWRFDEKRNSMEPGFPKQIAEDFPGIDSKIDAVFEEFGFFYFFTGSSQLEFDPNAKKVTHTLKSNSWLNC

As to `C[C@H](CCC(=O)N[C@H](Cc1ccccc1)C(=O)NO)[C@H]1CC[C@H]2[C@@H]3CC[C@@H]4C[C@H](O)CC[C@]4(C)[C@H]3CC[C@]12C` [Compound 22, Lithocholyl-(D)-Phenylalanine Hydroxamic Acid], in the assay with chondrocytes (setting [1]), the inhibition at 50 µM worked out at 5%. Also, the 50% inhibitory concentration (IC50) against stromelysin (60 minutes incubation) worked out at 1200 nM. On to `C[C@H](CCC(=O)N[C@H](CCc1ccccc1)C(=O)NO)[C@H]1CC[C@H]2[C@@H]3CC[C@@H]4C[C@H](O)CC[C@]4(C)[C@H]3CC[C@]12C` [Compound 28, Lithocholyl-(D)-homophenylalanine Hydroxamic Acid], for which the inhibition at 10 µM on stromelysin (at 10 μM of compound) turned out to be 92%. For `C[C@H](CCC(=O)O)[C@H]1CC[C@H]2[C@@H]3[C@@H](O)C[C@@H]4C[C@H](O)CC[C@]4(C)[C@H]3CC[C@]12C` [Compound 3, ursodeoxycholic acid, reference compound], the inhibition at 50 µM in the assay on chondrocytes (setting [1]) was 5%. For the same compound, the inhibition at 10 µM at stromelysin (at 10 μM of compound) was 21%. For the compound `C[C@H](CCC(=O)O)[C@H]1CC[C@H]2[C@@H]3C[C@H](O)[C@@H]4C[C@H](O)CC[C@]4(C)[C@H]3CC[C@]12C` [Compound 4, hyodeoxycholic acid, reference compound], the inhibition at 50 µM with chondrocytes (setting [1]) is 7%. Moreover, the inhibition at 10 µM at stromelysin (at 10 μM of compound) was 18%.

In the case of `C[C@H](CCC(=O)NO)[C@H]1CC[C@H]2[C@@H]3[C@H](O)C[C@@H]4C[C@H](O)CC[C@]4(C)[C@H]3CC[C@]12C` [Compound 14, Chenodeoxycholyhydroxamic Acid], the inhibition at 50 µM in the assay on chondrocytes (setting [1]) came out at 77%. Also, the “percent inhibition of collagenase” value with collagenase worked out at 19%. For `C[C@H](CCC(=O)N[C@@H](CCc1ccccc1)C(=O)NO)[C@H]1CC[C@H]2[C@@H]3CC[C@@H]4C[C@H](O)CC[C@]4(C)[C@H]3CC[C@]12C` [Compound 27, Lithocholyl-(L)-homophenylalanine Hydroxamic Acid], the inhibition at 10 µM at stromelysin (at 10 μM of compound) was 90%. As for `C[C@H](CCC(=O)NCCC[N+](C)(C)CC(O)CS(=O)(=O)[O-])[C@H]1CC[C@H]2[C@@H]3[C@H](O)C[C@@H]4C[C@H](O)CC[C@]4(C)[C@H]3C[C@H](O)[C@]12C` (stereo partly shown) [Compound 5, 3-[(3-cholamidopropyl)dimethylammonio]-2-hydroxy-1-propanesulfonate, reference compound], the inhibition at 50 µM with chondrocytes came out at 35%. The inhibition at 10 µM at stromelysin came out at 15%.

Turning to `C[C@H](CCC(=O)NO)[C@H]1CC[C@H]2[C@@H]3[C@H](O)C[C@@H]4C[C@H](O)CC[C@]4(C)[C@H]3C[C@H](O)[C@]12C` [Compound 23, Cholylhydroxamic Acid], the inhibition at 50 µM in the assay with chondrocytes (setting [1]) was -20%. In addition, the inhibition at 10 µM at stromelysin (at 10 μM of compound) is 12%. Take `C[C@H](CCC(=O)O)[C@H]1CC[C@H]2[C@@H]3CC[C@@H]4C[C@H](O)CC[C@]4(C)[C@H]3C[C@H](O)[C@]12C` [Compound 2, deoxycholic acid, reference compound]: the inhibition at 50 µM in the assay on chondrocytes (setting [1]) was -14%. The inhibition at 10 µM on stromelysin was 23%.
